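Compound exposure: 48 hours, 5 concentrations, 96-well plates. GI50: concentration for 50% inhibition of growth. TGI: concentration producing complete growth inhibition.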
Legend:
Test in all cases: inhibition of tumour cell growth, NCI panel, 48 h
[1] = test system: LOX IMVI melanoma
[2] = test system: HT29 colon
[3] = test system: UACC-62 melanoma
[4] = test system: SK-MEL-5 melanoma
[5] = test system: 786-0 renal
[6] = test system: NCI-H23 lung
[7] = test system: OVCAR-4 ovarian
[8] = test system: TK-10 renal
[9] = test system: CAKI-1 renal
[10] = test system: BT-549 breast
[11] = test system: MOLT-4 leukemia
[12] = test system: IGROV1 ovarian
[13] = test system: SN12C renal
[14] = test system: NCI/ADR-RES ovarian
[15] = test system: RPMI-8226 leukemia
[16] = test system: HL-60(TB) leukemia
[17] = test system: SK-MEL-2 melanoma
[18] = test system: RXF 393 renal
[19] = test system: DU-145 prostate
[20] = test system: UACC-257 melanoma
[21] = test system: SNB-19 CNS
[22] = test system: SF-268 CNS
[23] = test system: OVCAR-8 ovarian
[24] = test system: U251 CNS
[25] = test system: NCI-H460 lung
[26] = test system: K-562 leukemia
[27] = test system: SNB-75 CNS
[28] = test system: UO-31 renal
[29] = test system: MDA-MB-231 breast
[30] = test system: HS 578T breast
[31] = test system: SW-620 colon
[32] = test system: HCT-116 colon
[33] = test system: SK-MEL-28 melanoma
[34] = test system: SF-295 CNS
[35] = test system: HCT-15 colon
[36] = test system: SF-539 CNS
[37] = test system: HOP-62 NSCLC
[38] = test system: A549 NSCLC
[39] = test system: HCC-2998 colon
[40] = test system: M14 melanoma
[41] = test system: SK-OV-3 ovarian
[42] = test system: KM12 colon
[43] = test system: NCI-H226 lung
[44] = test system: T-47D breast
[45] = test system: COLO 205 colon
[46] = test system: EKVX NSCLC
[47] = test system: HOP-92 NSCLC
[48] = test system: ACHN renal
[49] = test system: NCI-H522 lung
[50] = test system: SR leukemia
[51] = test system: MDA-MB-435
[52] = test system: PC-3 prostate
[53] = test system: MCF7 breast
[54] = test system: OVCAR-3 ovarian
[55] = test system: CCRF-CEM leukemia
[56] = test system: A498 renal
[57] = test system: OVCAR-5 ovarian
[58] = test system: MALME-3M melanoma
[59] = test system: MDA-N

Cc1ccccc1NC(=O)c1sc2nc3c(cc2c1N)C(=O)CCC3
GI50 [1]: 6.71 µM
TGI [1]: > 100 µM
GI50 [2]: 1.59 µM
TGI [2]: 23.7 µM
GI50 [3]: 0.999 µM
TGI [3]: > 100 µM
GI50 [4]: 0.613 µM
TGI [4]: 11.6 µM
GI50 [5]: 9.02 µM
TGI [5]: > 100 µM
GI50 [6]: 4.62 µM
TGI [6]: > 100 µM
GI50 [7]: 6.21 µM
TGI [7]: > 100 µM
GI50 [8]: 4.05 µM
TGI [8]: > 100 µM
GI50 [9]: 6.74 µM
TGI [9]: > 100 µM
GI50 [10]: 6.58 µM
TGI [10]: > 100 µM
GI50 [11]: 11.3 µM
TGI [11]: > 100 µM
GI50 [12]: 5.26 µM
TGI [12]: > 100 µM
GI50 [13]: 5.53 µM
TGI [13]: > 100 µM
GI50 [14]: 2.23 µM
TGI [14]: > 100 µM
GI50 [15]: 5.29 µM
TGI [15]: > 100 µM
GI50 [16]: 3.1 µM
TGI [16]: > 100 µM
GI50 [17]: 0.548 µM
TGI [17]: > 100 µM
GI50 [18]: 1.62 µM
TGI [18]: 5.65 µM
GI50 [19]: 2.7 µM
TGI [19]: 8.41 µM
GI50 [20]: 1.97 µM
TGI [20]: > 100 µM
GI50 [21]: 3.1 µM
TGI [21]: > 100 µM
GI50 [22]: 8.51 µM
TGI [22]: > 100 µM
GI50 [23]: 4.89 µM
TGI [23]: > 100 µM
GI50 [24]: 1.67 µM
TGI [24]: 21.4 µM
GI50 [25]: 2.63 µM
TGI [25]: 10.6 µM
GI50 [26]: 0.771 µM
TGI [26]: > 100 µM
GI50 [27]: 1.66 µM
TGI [27]: > 100 µM
GI50 [28]: 34.4 µM
TGI [28]: > 100 µM
GI50 [29]: 3.98 µM
TGI [29]: > 100 µM
GI50 [30]: 1.71 µM
TGI [30]: 5.56 µM
GI50 [31]: 1.83 µM
TGI [31]: > 100 µM
GI50 [32]: 3.56 µM
TGI [32]: > 100 µM
GI50 [33]: 1.83 µM
TGI [33]: > 100 µM
GI50 [34]: 1.33 µM
TGI [34]: > 100 µM
GI50 [35]: 1.64 µM
TGI [35]: > 100 µM
GI50 [36]: 2.13 µM
TGI [36]: 8.1 µM
GI50 [37]: 7.28 µM
TGI [37]: > 100 µM
GI50 [38]: 2.22 µM
TGI [38]: > 100 µM
GI50 [39]: 3.21 µM
TGI [39]: > 100 µM
GI50 [40]: 2.27 µM
TGI [40]: > 100 µM
GI50 [41]: 2.72 µM
TGI [41]: > 100 µM
GI50 [42]: 1.69 µM
TGI [42]: > 100 µM
GI50 [43]: 37.6 µM
TGI [43]: > 100 µM
GI50 [44]: 4.81 µM
TGI [44]: > 100 µM
GI50 [45]: 2.13 µM
TGI [45]: 6.69 µM
GI50 [46]: 6.82 µM
TGI [46]: > 100 µM
GI50 [47]: > 100 µM
TGI [47]: > 100 µM
GI50 [48]: 15.8 µM
TGI [48]: > 100 µM
GI50 [49]: 0.896 µM
TGI [49]: 3.5 µM
GI50 [50]: 2.93 µM
TGI [50]: > 100 µM
GI50 [51]: 0.331 µM
TGI [51]: 1.98 µM
GI50 [52]: 3.13 µM
TGI [52]: > 100 µM
GI50 [53]: 1.58 µM
TGI [53]: > 100 µM
GI50 [54]: 1.76 µM
TGI [54]: 4.45 µM
GI50 [55]: 2.55 µM
TGI [55]: > 100 µM
GI50 [56]: 1.16 µM
TGI [56]: 4.65 µM
GI50 [57]: 6.82 µM
TGI [57]: > 100 µM
GI50 [58]: 3.54 µM
TGI [58]: > 100 µM

CN1N(c2ccccc2)C(=O)C2=NC=C(C#N)C(=N)C21C (centres undefined)
TGI [1]: > 100 µM
TGI [3]: > 100 µM
TGI [4]: > 100 µM
TGI [5]: > 100 µM
TGI [6]: > 100 µM
TGI [7]: > 100 µM
TGI [8]: > 100 µM
TGI [9]: > 100 µM
TGI [10]: > 100 µM
TGI [11]: > 100 µM
TGI [12]: > 100 µM
TGI [13]: > 100 µM
TGI [14]: > 100 µM
TGI [15]: > 100 µM
TGI [17]: > 100 µM
TGI [18]: > 100 µM
TGI [19]: > 100 µM
TGI [20]: > 100 µM
TGI [21]: > 100 µM
TGI [23]: > 100 µM
TGI [24]: > 100 µM
TGI [25]: > 100 µM
TGI [26]: > 100 µM
TGI [27]: > 100 µM
TGI [28]: > 100 µM
TGI [29]: > 100 µM
TGI [31]: > 100 µM
TGI [32]: > 100 µM
TGI [33]: > 100 µM
TGI [34]: > 100 µM
TGI [35]: > 100 µM
TGI [36]: > 100 µM
TGI [38]: > 100 µM
TGI [39]: > 100 µM
TGI [40]: > 100 µM
TGI [41]: > 100 µM
TGI [59]: > 100 µM
TGI [42]: > 100 µM
TGI [43]: > 100 µM
TGI [45]: > 100 µM
TGI [46]: > 100 µM
TGI [47]: > 100 µM
TGI [48]: > 100 µM
TGI [49]: > 100 µM
TGI [50]: > 100 µM
TGI [51]: > 100 µM
TGI [52]: > 100 µM
TGI [53]: > 100 µM
TGI [54]: > 100 µM
TGI [55]: > 100 µM
TGI [56]: > 100 µM
TGI [57]: > 100 µM
TGI [58]: > 100 µM

From PubChem BioAssay (NCI)
